Tests used:
Test in all cases: biochemical
[1] = molecular target: T1, panel of 374 wild-type kinases (Homo sapiens, UniProt O43353); details: read-out: % Enzyme Activity (relative to DMSO controls), kinase RIPK2
T1 construct: purchased Reaction Biology Corporation

[2] = molecular target: T2, panel of 374 wild-type kinases (Homo sapiens, UniProt Q99986); details: read-out: % Enzyme Activity (relative to DMSO controls), kinase VRK1
T2 construct: purchased Reaction Biology Corporation
T2 sequence (Q99986 1-396): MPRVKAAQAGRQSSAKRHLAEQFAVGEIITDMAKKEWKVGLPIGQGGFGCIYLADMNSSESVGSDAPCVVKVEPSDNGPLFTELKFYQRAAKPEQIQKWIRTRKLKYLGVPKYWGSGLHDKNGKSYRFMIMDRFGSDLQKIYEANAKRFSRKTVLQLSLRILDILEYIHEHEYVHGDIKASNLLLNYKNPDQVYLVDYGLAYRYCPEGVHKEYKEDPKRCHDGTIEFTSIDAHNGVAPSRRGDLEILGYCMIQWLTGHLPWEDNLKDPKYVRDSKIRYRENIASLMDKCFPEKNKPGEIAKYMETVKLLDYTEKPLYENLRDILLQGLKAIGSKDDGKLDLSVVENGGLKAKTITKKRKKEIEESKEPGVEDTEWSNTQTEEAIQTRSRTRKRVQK

[3] = molecular target: T3, panel of 374 wild-type kinases (Homo sapiens, UniProt P23443); details: read-out: % Enzyme Activity (relative to DMSO controls), kinase p70S6K/RPS6KB1
T3 construct: purchased Reaction Biology Corporation

[4] = molecular target: T4, panel of 374 wild-type kinases (Homo sapiens, UniProt P42681); details: read-out: % Enzyme Activity (relative to DMSO controls), kinase TXK
T4 construct: purchased Reaction Biology Corporation
T4 sequence (P42681 1-527): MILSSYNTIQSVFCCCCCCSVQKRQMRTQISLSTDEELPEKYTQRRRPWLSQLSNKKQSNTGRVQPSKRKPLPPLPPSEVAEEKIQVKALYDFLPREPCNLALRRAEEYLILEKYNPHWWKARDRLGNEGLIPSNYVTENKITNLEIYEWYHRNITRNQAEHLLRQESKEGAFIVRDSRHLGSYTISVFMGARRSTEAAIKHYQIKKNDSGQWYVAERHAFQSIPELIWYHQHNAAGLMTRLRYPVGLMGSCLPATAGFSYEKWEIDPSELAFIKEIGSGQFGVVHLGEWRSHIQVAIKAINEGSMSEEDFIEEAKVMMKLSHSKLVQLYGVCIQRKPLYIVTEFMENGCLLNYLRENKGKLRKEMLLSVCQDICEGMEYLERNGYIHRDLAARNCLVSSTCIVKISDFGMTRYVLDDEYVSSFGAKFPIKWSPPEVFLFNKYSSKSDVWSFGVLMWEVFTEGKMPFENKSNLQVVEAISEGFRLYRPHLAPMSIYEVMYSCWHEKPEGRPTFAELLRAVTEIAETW

[5] = molecular target: T5, panel of 374 wild-type kinases (Homo sapiens, UniProt Q13043); details: read-out: % Enzyme Activity (relative to DMSO controls), MST1/STK4
T5 construct: purchased Reaction Biology Corporation
T5 sequence (Q13043 1-487): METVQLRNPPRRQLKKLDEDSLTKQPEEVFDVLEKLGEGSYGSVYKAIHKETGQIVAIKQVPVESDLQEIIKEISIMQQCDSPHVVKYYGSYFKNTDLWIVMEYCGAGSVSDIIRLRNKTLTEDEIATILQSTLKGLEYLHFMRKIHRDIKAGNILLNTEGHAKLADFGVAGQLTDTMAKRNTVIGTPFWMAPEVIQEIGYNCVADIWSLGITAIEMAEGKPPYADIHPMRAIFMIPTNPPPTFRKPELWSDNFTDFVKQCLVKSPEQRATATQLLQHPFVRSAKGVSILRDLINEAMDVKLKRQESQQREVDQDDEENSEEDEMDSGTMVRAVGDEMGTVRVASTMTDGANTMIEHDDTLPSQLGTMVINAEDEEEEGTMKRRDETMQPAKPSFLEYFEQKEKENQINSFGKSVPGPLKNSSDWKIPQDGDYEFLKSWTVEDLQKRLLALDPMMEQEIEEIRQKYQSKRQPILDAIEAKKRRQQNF

[6] = molecular target: T6, panel of 374 wild-type kinases (Homo sapiens, UniProt P07948); details: read-out: % Enzyme Activity (relative to DMSO controls), LYN
T6 construct: purchased Reaction Biology Corporation

[7] = molecular target: T7, panel of 374 wild-type kinases (Homo sapiens, UniProt Q8TD19); details: read-out: % Enzyme Activity (relative to DMSO controls), NEK9
T7 construct: purchased Reaction Biology Corporation
T7 sequence (Q8TD19 1-979): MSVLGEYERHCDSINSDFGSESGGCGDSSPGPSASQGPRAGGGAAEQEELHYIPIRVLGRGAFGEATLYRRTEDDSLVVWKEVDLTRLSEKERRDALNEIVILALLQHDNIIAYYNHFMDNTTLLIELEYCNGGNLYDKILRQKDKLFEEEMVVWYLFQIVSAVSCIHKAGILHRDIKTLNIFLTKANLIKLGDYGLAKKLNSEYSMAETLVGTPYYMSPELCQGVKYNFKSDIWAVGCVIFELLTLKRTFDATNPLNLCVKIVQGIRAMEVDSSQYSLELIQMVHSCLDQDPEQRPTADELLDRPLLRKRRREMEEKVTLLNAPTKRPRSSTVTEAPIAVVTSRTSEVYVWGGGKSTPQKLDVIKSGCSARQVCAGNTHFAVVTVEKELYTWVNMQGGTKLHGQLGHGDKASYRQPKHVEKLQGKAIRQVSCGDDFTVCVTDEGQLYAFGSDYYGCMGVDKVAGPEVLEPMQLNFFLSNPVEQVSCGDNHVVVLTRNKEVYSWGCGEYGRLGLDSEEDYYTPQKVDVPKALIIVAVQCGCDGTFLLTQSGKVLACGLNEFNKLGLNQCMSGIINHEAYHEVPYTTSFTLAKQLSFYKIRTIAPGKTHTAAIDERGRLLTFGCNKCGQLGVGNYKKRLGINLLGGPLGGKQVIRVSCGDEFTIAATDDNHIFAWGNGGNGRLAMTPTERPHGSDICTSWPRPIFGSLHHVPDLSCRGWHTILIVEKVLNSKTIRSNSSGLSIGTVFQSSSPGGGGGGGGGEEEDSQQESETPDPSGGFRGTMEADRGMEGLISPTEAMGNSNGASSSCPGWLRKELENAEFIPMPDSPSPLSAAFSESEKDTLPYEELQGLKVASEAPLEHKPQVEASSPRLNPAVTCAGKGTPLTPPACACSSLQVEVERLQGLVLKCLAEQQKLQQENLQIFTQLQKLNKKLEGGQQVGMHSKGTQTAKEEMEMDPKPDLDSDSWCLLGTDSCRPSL

T1 sequence (O43353 whole entry): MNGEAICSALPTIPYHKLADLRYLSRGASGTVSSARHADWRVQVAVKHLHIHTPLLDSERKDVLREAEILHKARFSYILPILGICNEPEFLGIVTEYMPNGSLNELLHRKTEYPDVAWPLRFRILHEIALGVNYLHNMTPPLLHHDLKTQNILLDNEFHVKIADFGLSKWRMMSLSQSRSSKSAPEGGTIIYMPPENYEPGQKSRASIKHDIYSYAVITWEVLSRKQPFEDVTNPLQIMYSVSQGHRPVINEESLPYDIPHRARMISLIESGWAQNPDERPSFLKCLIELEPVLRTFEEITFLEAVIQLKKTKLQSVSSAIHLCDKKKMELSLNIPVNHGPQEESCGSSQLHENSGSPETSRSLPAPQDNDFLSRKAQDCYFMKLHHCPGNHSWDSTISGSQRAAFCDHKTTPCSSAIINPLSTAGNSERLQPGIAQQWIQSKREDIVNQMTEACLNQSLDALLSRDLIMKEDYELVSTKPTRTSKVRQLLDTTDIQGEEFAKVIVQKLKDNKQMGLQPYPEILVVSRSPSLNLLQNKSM
T6 sequence (P07948 whole entry): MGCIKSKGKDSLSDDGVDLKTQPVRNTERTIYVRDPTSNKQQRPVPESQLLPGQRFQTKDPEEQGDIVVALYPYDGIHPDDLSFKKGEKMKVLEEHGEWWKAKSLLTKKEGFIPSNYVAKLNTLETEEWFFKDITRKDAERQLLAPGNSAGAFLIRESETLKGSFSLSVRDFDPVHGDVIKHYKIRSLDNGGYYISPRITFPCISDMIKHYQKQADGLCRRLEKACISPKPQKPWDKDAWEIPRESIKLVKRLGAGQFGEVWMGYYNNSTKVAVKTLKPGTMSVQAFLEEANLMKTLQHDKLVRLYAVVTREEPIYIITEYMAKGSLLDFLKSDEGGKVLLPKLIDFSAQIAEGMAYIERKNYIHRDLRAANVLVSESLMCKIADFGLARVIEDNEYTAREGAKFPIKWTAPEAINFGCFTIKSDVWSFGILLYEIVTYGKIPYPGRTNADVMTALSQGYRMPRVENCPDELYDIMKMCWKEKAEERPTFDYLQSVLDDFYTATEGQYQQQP
T3 sequence (P23443 whole entry): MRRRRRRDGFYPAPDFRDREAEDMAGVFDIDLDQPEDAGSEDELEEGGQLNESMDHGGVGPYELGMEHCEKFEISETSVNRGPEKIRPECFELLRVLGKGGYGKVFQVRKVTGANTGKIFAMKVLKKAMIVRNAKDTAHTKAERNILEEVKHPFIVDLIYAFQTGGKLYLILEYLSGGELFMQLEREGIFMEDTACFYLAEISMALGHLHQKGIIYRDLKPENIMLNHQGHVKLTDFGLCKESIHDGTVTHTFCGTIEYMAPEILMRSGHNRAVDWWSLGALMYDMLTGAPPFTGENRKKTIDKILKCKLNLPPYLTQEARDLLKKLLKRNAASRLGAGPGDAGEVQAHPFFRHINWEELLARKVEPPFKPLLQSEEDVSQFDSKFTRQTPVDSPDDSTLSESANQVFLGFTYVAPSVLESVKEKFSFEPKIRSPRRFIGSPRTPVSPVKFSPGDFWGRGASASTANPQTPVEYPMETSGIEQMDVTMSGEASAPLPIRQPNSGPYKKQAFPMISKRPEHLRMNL

Structure (SMILES) | remaining activity at 5 µM [1] [%] | remaining activity at 5 µM [2] [%] | remaining activity at 5 µM [3] [%] | remaining activity at 5 µM [4] [%] | remaining activity at 5 µM [5] [%] | remaining activity at 5 µM [6] [%] | remaining activity at 5 µM [7] [%] | remaining activity at 10 µM ([1]; 10 uM) [%] | remaining activity at 10 µM ([2]; 10 uM) [%] | remaining activity at 10 µM ([3]; 10 uM) [%] | remaining activity at 10 µM ([4]; 10 uM) [%] | remaining activity at 10 µM ([5]; 10 uM) [%] | remaining activity at 10 µM ([6]; 10 uM) [%] | remaining activity at 10 µM ([7]; 10 uM) [%]
O=C(Nc1cnn(-c2csc(C(=O)NC3COC3)c2)c1)Nc1ccccc1Cl [Compound 17, 4-(4-(3-(2-chlorophenyl)ureido)-1H-pyrazol-1-yl)-N-(oxetan-3-yl)thiophene-2-carboxamide] | 120 | 109 | 92.1 | 89.8 | 99.3 | 96.8 | 104 | – | – | – | – | – | – | –
O=C(Nc1cnn(-c2csc(C(=O)NC3COC3)c2)c1)Nc1c(F)cccc1Cl [Compound 25, 4-(4-(3-(2-chloro-6-fluorophenyl)ureido)-1H-pyrazol-1-yl)-N-(oxetan-3-yl)thiophene-2-carboxamide] | 80.2 | 91.9 | 97.7 | 90.8 | 96.6 | 95.3 | 88.4 | – | – | – | – | – | – | –
Cc1sc(C(=O)NC2COC2)cc1-n1cc(NC(=O)Nc2c(F)cccc2Cl)cn1 [Compound 27, 4-(4-(3-(2-chloro-6-fluorophenyl)ureido)-1H-pyrazol-1-yl)-5-methyl-N-(oxetan-3-yl)thiophene-2-carboxamide] | – | – | – | – | – | – | – | 89.3 | 109 | 92.1 | 76.7 | 107 | 106 | 111
